Results published in paper PMC8400246, “Antimicrobial Activity and Action Mechanisms of Arg-Rich Short Analog Peptides Designed from the C-Terminal Loop Region of American Oyster Defensin (AOD)” (Marine Drugs, 2021).
Positions of bridges follow the written chain, without caps; N, C: chain ends. Residues, ends and D or L forms follow the SMILES beside them.

Columns and labels:
S. enterica KCTC2514 = experiment: Ultrasensitive radial diffusion assay (URDA), MEC; format: cell-based, Salmonella enterica; details: S. enterica KCTC2514, Gram -, pH 6.6, 37 °C, triplicate, averaged
Procedure: (§1) The antimicrobial activity of the AOD analogs was assessed with an ultrasensitive radial diffusion assay (URDA), as described previously. The antimicrobial activity of the analogs (from 31.3 to 1000 μg/mL, 5 μL volume) was tested against several bacteria, including Bacillus subtilis KCTC1021, Streptococcus mutans KCCM40105, Aeromonas hydrophila KCTC2358, Escherichia coli D31, E. coli ML35p, Pseudomonas aeruginosa KCTC2004, Salmonella enterica KCTC2514, and Shigella sonnei KCTC2009. In addition, Cutibacterium acnes KCTC3314, Staphylococcus epidermidis KCTC1917, and Candida albicans KCTC7965 were used for the anti-acne activity test. All except C. acnes KCTC3314 were grown overnight for 18 h in tryptic soy broth (TSB; for bacteria) or Sabouraud dextrose broth (SDB; for C. albicans) at the appropriate temperature (25 °C for A. hydrophila, 37 °C for the others). C. acnes was grown for 72 h in reinforced clostridial medium (RCM) under anaerobic conditions with an anaerobic gas-generating pouch (GasPak EZ; Becton Dickinson and Company, Sparks, MD, USA) at 37 °C. Following overnight or 72-h incubation, the bacterial and C. albicans suspensions were diluted to a McFarland turbidity standard level of 0.5 (Vitek Colorimeter #52-1210; Hach, Loveland, CO, USA) corresponding to approximately 10^8 colony forming units (CFU)/mL for bacteria and 10^6 CFU/mL for C. albicans. Diluted bacterial or C. albicans suspension (0.5 mL) was added to 9.5 mL underlay gel containing 5 × 10^6 or 5 × 10^4 CFU/mL in 10 mM phosphate buffer (pH 6.6) with 0.03% TSB (or RCM) or 0.03% SDB and 1% Type I low-electroendosmosis agarose. The AOD analogs were serially diluted two-fold in 5 µL acidified water (0.01% acetic acid; HAc) and each dilution was added to 2.5-mm diameter wells in the 1-mm thick underlay gel. After incubation for 3 h at either 25 °C (for A. hydrophila) or 37 °C (for the others), the bacterial or yeast suspension was overlaid with 10 mL double-strength overlay gel containing 6% TSB, RCM, or SDB with 10 mM phosphate buffer (pH 6.6) in 1% agarose. Plates were incubated for an additional 18–24 h (72 h for C. acnes) and the clearing zone diameters were measured. After subtracting the diameter of the well (2.5 mm), the clearing zone diameter was expressed in units (0.1 mm = 1 U).
(§2) The minimal effective concentration (MEC; μg/mL) of the AOD analogs was calculated as the X-intercept of a plot of clearing zone diameter units against the log10 of the peptide concentration. Piscidin 1, an α-helical AMP isolated from hybrid striped bass (Morone saxatilis × Morone chrysops) was used as a positive control.

100-bp DNA ladder = experiment: DNA binding assay (electrophoretic mobility shift); details: 1 μg analog with 0.2 μg 100-bp DNA ladder, 37 °C, 60 min, 1.8% agarose gel with EtBr
Procedure: To evaluate the binding ability of the AOD analogs to intracellular components, a DNA binding assay was performed as previously described with minor modifications. The DNA-binding ability of the AOD analogs was assessed through observation of the inhibition of migration of DNA bands through agarose gels. A commercial 100-bp DNA ladder (0.2 μg) (Bioneer Corp., Daejeon, South Korea) was mixed with each analog (1 μg) in 0.01% acetic acid, and the resulting mixture was incubated at 37 °C for 60 min and then electrophoresed on 1.8% agarose gels containing 0.5 μg/mL ethidium bromide (EtBr). HAc (0.01%) was used as a negative control.
To determine the concentration required for the interaction of AOD analogs with DNA, a DNA binding assay was performed with various mixing ratios of analog A3 (0.25–1.0 μg/mL) and 100-bp DNA ladder (0.1–0.4 μg), as described above.

[1] = system: E. coli DH5α genomic DNA (16S ribosomal gene); experiment: DNA amplification (PCR) inhibition assay; format: biochemical, Escherichia coli; details: 1.5 µg of each analog, 0.2 µg E. coli DH5α gDNA, 30 cycles
Procedure: To determine whether AOD analogs target DNA amplification, the ability of the analogs to inhibit DNA amplification was assessed using E. coli DH5α genomic DNA (gDNA). Total gDNA was extracted using the phenol–chloroform method, as described previously. To assess the inhibition of DNA amplification, 1.5 µg AOD analog was added to the polymerase chain reaction (PCR) mixture. The PCR solution consisted of 0.2 µg purified gDNA, 5 µL 10× PCR buffer with MgCl2, 4 µL of each dNTP at 2.5 mM, 0.25 μL Ex Taq polymerase (Takara Bio, Shiga, Japan), 2.0 pmol each of primers 27F (5′-[…]-3′) and 1492R (5′-TACGGCTACCTTGTTACGA-CTT-3′), and up to 50 µL sterile distilled water. The PCR thermal cycling conditions were as follows: initial denaturation at 94 °C for 5 min; 30 cycles of 94 °C for 30 s, 55 °C for 30 s, and 72 °C for 2 min; and a final extension for 10 min at 72 °C. PCR was conducted using a Type 9700 Thermal Cycler (Perkin-Elmer, Norwalk City, CA, USA). The PCR products were confirmed through 1.5% agarose gel electrophoresis with 0.5 μg/mL EtBr. Piscidin 1 was used as a positive control and 0.01% HAc was used as a negative control.

S. mutans KCCM40105 = experiment: Ultrasensitive radial diffusion assay (URDA), MEC; format: cell-based, Streptococcus mutans; details: S. mutans KCCM40105, Gram +, pH 6.6, 37 °C, triplicate, averaged
Procedure: as §1, §2

P. aeruginosa KCTC2004 = experiment: Ultrasensitive radial diffusion assay (URDA), MEC; format: cell-based, Pseudomonas aeruginosa; details: P. aeruginosa KCTC2004, Gram -, pH 6.6, 37 °C, triplicate, averaged
Procedure: as §1, §2

[2] = system: 100-bp DNA ladder and DNA polymerase; experiment: Competitive binding between DNA and DNA polymerase; details: 1 μg peptide, 0.2 μg 100-bp DNA ladder, DNA polymerase 1.0 μL (5 units/μL), 37 °C, 60 min
Procedure: To assess the preferential binding ability of the AOD analogs to DNA or DNA polymerase, a competitive binding assay was performed. Briefly, AOD analog was added to a reaction mixture containing DNA or DNA polymerase and incubated for 60 min at 37 °C. […] Piscidin 1 and 0.01% HAc were the positive and negative controls, respectively.

C. albicans KCTC7965 = experiment: Ultrasensitive radial diffusion assay (URDA), MEC; format: cell-based, Candida albicans; details: C. albicans KCTC7965, yeast, SDB, pH 6.6, 37 °C, triplicate, averaged
Procedure: as §1, §2

S. sonnei KCTC2009 = experiment: Ultrasensitive radial diffusion assay (URDA), MEC; format: cell-based, Shigella sonnei; details: S. sonnei KCTC2009, Gram -, pH 6.6, 37 °C, triplicate, averaged
Procedure: as §1, §2

E. coli ML35p = experiment: Ultrasensitive radial diffusion assay (URDA), MEC; format: cell-based, Escherichia coli; details: Gram -, pH 6.6, 37 °C, triplicate, averaged
Procedure: as §1, §2

E. coli D31 = experiment: Ultrasensitive radial diffusion assay (URDA), MEC; format: cell-based, Escherichia coli; details: E. coli D31, Gram -, pH 6.6, 37 °C, triplicate, averaged
Procedure: as §1, §2

A. hydrophila KCTC2358 = experiment: Ultrasensitive radial diffusion assay (URDA), MEC; format: cell-based, Aeromonas hydrophila; details: A. hydrophila KCTC2358, Gram -, pH 6.6, 25 °C, triplicate, averaged
Procedure: as §1, §2

C. acnes KCTC3314 = experiment: Ultrasensitive radial diffusion assay (URDA), MEC; format: cell-based, Cutibacterium acnes; details: C. acnes KCTC3314, Gram +, anaerobic, RCM, 72 h, 37 °C, triplicate, averaged
Procedure: as §1, §2

V. parahaemolyticus gDNA = experiment: Bacterial gDNA binding (electrophoretic mobility shift); design: species or system Vibrio parahaemolyticus; details: 1 μg of analog with V. parahaemolyticus gDNA, agarose gel
Procedure: To evaluate the binding ability of the AOD analogs to intracellular components, a DNA binding assay was performed as previously described with minor modifications. The DNA-binding ability of the AOD analogs was assessed through observation of the inhibition of migration of DNA bands through agarose gels. […] HAc (0.01%) was used as a negative control.

B. subtilis KCTC1021 = experiment: Ultrasensitive radial diffusion assay (URDA), MEC; format: cell-based, Bacillus subtilis; details: B. subtilis KCTC1021, Gram +, 10 mM phosphate buffer pH 6.6, 37 °C, X-intercept of clearing zone vs log10 concentration, triplicate, averaged
Procedure: as §1, §2

S. epidermidis KCTC1917 = experiment: Ultrasensitive radial diffusion assay (URDA), MEC; format: cell-based, Staphylococcus epidermidis; details: S. epidermidis KCTC1917, Gram +, pH 6.6, 37 °C, triplicate, averaged
Procedure: as §1, §2

several microorganisms = details: analog peptides from the C-terminus of MGD-1; cited from earlier work
Description: This peptide contains three disulfide bridges linked with six cysteine (Cys) residues, which contribute to its structural stability. For the development of potential AMPs from AOD, the AOD molecule may be inappropriate due to its complex structure containing six Cys residues and long sequence length (38 residues), which complicate the recreation of its structure and increase production costs. In a previou ...

[3] = system: human red blood cells (RBCs; blood type B); details: 3% hematocrit, 3.13–100 μg/mL, 60 min, 37 °C, absorbance 542 nm, triplicate

Row | Compound | Minimal Effective Concentration (S. enterica KCTC2514) [µg/mL] | electrophoretic mobility of the DNA (DNA-binding ability) (100-bp DNA ladder) | inhibition of DNA amplification (PCR) [1] | Minimal Effective Concentration (S. mutans KCCM40105) [µg/mL] | Minimal Effective Concentration (P. aeruginosa KCTC2004) [µg/mL] | competitive binding between DNA and DNA polymerase (electrophoretic mobility of DNA) [2] | Minimal Effective Concentration (C. albicans KCTC7965) [µg/mL] | Minimal Effective Concentration (S. sonnei KCTC2009) [µg/mL] | Minimal Effective Concentration (E. coli ML35p) [µg/mL] | Minimal Effective Concentration (E. coli D31) [µg/mL] | Minimal Effective Concentration (A. hydrophila KCTC2358) [µg/mL] | Minimal Effective Concentration (C. acnes KCTC3314) [µg/mL] | electrophoretic mobility of V. parahaemolyticus gDNA (V. parahaemolyticus gDNA) | Minimal Effective Concentration (B. subtilis KCTC1021) [µg/mL] | Minimal Effective Concentration (S. epidermidis KCTC1917) [µg/mL] | antimicrobial activity (in words) (several microorganisms) | hemolytic activity [3]
1 | N=C(N)NCCC[C@@H]1NC(=O)[C@H](CCCNC(=N)N)NC(=O)[C@H](CCCNC(=N)N)NC(=O)[C@H](CCCNC(=N)N)NC(=O)[C@H](Cc2c[nH]c3ccccc23)NC(=O)[C@H](CCCNC(=N)N)NC(=O)[C@H](CCCNC(=N)N)NC(=O)[C@@H](N)CSSC[C@@H](C(=O)O)NC1=O [Analog A3] (H-CRRWRRRRC-OH; disulfide 1-9) | 6.5 | inhibited | partially or completely inhibited | 1.5 | 3.0 | inhibited | 54.0 | 5.5 | 6.8 | 5.0 | 3.3 | 53.7 | inhibited | 0.4 | 4.2 | – | –
2 | N=C(N)NCCC[C@@H]1NC(=O)[C@H](CCCNC(=N)N)NC(=O)[C@H](Cc2c[nH]c3ccccc23)NC(=O)CNC(=O)[C@H](Cc2c[nH]c3ccccc23)NC(=O)[C@H](CCCNC(=N)N)NC(=O)[C@H](CCCNC(=N)N)NC(=O)[C@@H](N)CSSC[C@@H](C(N)=O)NC1=O [Analog A4] (H-CRRWGWRRC-NH2; disulfide 1-9) | – | inhibited | partially or completely inhibited | 10.5 | 29.5 | inhibited | 17.2 | – | 2.2 | 5.7 | – | 27.1 | inhibited | 2.5 | 15.8 | – | –
3 | CGGWHRLRC [analog peptide derived from the C-terminus (loop 3) of MGD-1] | – | – | – | – | – | – | – | – | – | – | – | – | – | – | – | potent antimicrobial activity | –
4 | CKKWKRKRC [Lys-substituted analog peptide derived from …] | – | – | – | – | – | – | – | – | – | – | – | – | – | – | – | stronger antibacterial activity than the parent analog peptide | –
5 | Piscidin 1: α-helical AMP isolated from hybrid striped bass, used as a positive control (FFHHIFRGIVHVGKTIHRLVTG) [reference compound] | 4.6 | – | did not inhibit | 3.2 | 8.0 | preferentially binds to DNA polymerase over DNA | 11.8 | 8.6 | 2.3 | 2.0 | 9.1 | – | – | 2.3 | – | – | strong hemolysis, even at very low concentrations (from 6.25 μg/mL)
